target: T1, Raw264.7 p110 γ (Mus musculus, UniProt Q9JHG7); assay: Raw264.7 p110 γ cellular assay (phospho-AKT); type: cell-based; conditions: serum-starved RAW264.7 cells stimulated with C5a
T1 construct: reduction of phospho-AKT in stimulated RAW 264.7 cells; endogenous in cells; host or cells: RAW264.7 macrophages
Source text: (b) PI3K-γ Selective Assay
Briefly, serum-starved PAW264.7 cells are stimulated with a known GPCR agonist C5a. […] Cells can be treated with test compounds prior to, simultaneously with, or subsequent to the stimulation by C5a. RAW 264.7 cells respond to the complement component fragment C5a through activation of the C5a receptor, and the C5a receptor activates macrophages and induces cell migration.

T1 sequence (Q9JHG7 whole entry): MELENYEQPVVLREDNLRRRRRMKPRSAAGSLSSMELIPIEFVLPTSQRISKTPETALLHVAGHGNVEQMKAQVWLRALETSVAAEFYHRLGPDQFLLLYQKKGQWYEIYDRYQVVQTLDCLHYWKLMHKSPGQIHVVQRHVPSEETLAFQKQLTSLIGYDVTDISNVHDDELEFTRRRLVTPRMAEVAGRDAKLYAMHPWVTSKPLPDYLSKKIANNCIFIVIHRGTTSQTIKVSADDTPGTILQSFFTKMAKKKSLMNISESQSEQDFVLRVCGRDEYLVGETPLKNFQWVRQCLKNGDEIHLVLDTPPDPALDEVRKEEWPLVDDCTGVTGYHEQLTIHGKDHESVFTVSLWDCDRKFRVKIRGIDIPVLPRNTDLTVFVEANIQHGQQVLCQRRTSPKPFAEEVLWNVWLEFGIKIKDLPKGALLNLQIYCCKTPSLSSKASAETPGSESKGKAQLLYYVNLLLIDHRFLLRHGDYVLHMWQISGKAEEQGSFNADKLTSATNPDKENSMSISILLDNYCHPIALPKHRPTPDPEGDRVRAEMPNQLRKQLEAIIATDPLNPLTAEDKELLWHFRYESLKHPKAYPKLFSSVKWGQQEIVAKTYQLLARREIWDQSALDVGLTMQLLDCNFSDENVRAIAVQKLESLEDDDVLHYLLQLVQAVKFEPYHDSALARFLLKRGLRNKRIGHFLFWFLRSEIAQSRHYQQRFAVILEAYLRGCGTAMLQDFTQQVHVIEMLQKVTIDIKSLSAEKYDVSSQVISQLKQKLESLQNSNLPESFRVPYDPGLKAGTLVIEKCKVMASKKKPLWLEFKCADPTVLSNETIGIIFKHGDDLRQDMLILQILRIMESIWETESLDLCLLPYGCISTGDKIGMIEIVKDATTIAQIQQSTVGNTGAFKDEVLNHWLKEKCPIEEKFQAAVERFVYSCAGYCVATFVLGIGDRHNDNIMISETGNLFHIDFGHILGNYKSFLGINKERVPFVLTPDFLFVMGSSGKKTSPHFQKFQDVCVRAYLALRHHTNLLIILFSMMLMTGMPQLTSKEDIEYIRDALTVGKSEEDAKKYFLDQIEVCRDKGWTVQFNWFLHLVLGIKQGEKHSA

IC50	SMILES
< 0.1 µM	CC(C)Oc1cc(-c2cccc3nc([C@H](C)NC(=O)c4c(N)nn5cccnc45)n(-c4ccccc4)c(=O)c23)ccn1 [Compound 145]
< 0.1 µM	C[C@H](NC(=O)c1c(N)nn2cccnc12)c1cc2cccc(-c3ccc(=O)n(C)c3)c2c(=O)n1-c1ccccc1 [Compound 121]

Second part, the compound before the results:

SMILES	IC50
CNS(=O)(=O)c1cccc(-c2cnc(N)c(C(=O)N[C@@H](C)c3cc4cccc(Cl)c4c(=O)n3-c3ccccc3)n2)c1 [Compound 83]	< 0.1 µM
C[C@H](NC(=O)c1nccnc1N)c1cc2cccc(Cl)c2c(=O)n1-c1ccc(F)cc1 [Compound 19]	< 0.1 µM
COc1cc(-c2cccc3cc(C(C)NC(=O)c4c(N)nn5cccnc45)c(-c4ccccc4)nc23)ccn1 (stereo not drawn) [Compound 219]	< 0.1 µM
C[C@H](NC(=O)c1c(N)nn2cccnc12)c1c(Br)c2cccc(Cl)c2c(=O)n1-c1ccccc1 [Compound 254]	< 0.1 µM
CC(C)Oc1ccc(-c2cnc(N)c(C(=O)N[C@@H](C)c3cc4cccc(Cl)c4c(=O)n3-c3ccccc3)n2)cn1 [Compound 98]	0.1 to 1 µM
C[C@H](NC(=O)c1c(N)nn2cccnc12)c1cc2cccc(CO)c2c(=O)n1-c1ccccc1 [Compound 228]	< 0.1 µM

target: T2, PI3K γ (Homo sapiens, UniProt P48736); assay: PI3-Kinase Promega ADP-Glo Max assay; type: biochemical; conditions: 40 nM kinase, 3 mM ATP, 500 uM diC8-PtdInsP
T2 construct: purchased Millipore
Summary of the method: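 Human class I PI3K reactions ran 2 hours at room temperature, followed by stop solution (40 min) and detection mix (1 hour) before luminescence reading.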

IC50	SMILES
1 to 10 µM	CC(C)Oc1cc(-c2cccc3nc([C@H](C)NC(=O)c4c(N)nn5cccnc45)n(-c4ccccc4)c(=O)c23)ccn1 [Compound 145]
< 0.1 µM	C[C@H](NC(=O)c1c(N)nn2cccnc12)c1cc2cccc(-c3ccc(=O)n(C)c3)c2c(=O)n1-c1ccccc1 [Compound 121]

More lines, now with the values behind:

SMILES	IC50
CNS(=O)(=O)c1cccc(-c2cnc(N)c(C(=O)N[C@@H](C)c3cc4cccc(Cl)c4c(=O)n3-c3ccccc3)n2)c1 [Compound 83]	0.1 to 1 µM
C[C@H](NC(=O)c1nccnc1N)c1cc2cccc(Cl)c2c(=O)n1-c1ccc(F)cc1 [Compound 19]	0.1 to 1 µM
COc1cc(-c2cccc3cc(C(C)NC(=O)c4c(N)nn5cccnc45)c(-c4ccccc4)nc23)ccn1 (stereo not drawn) [Compound 219]	1 to 10 µM
C[C@H](NC(=O)c1c(N)nn2cccnc12)c1c(Br)c2cccc(Cl)c2c(=O)n1-c1ccccc1 [Compound 254]	< 0.1 µM
CC(C)Oc1ccc(-c2cnc(N)c(C(=O)N[C@@H](C)c3cc4cccc(Cl)c4c(=O)n3-c3ccccc3)n2)cn1 [Compound 98]	1 to 10 µM
C[C@H](NC(=O)c1c(N)nn2cccnc12)c1cc2cccc(CO)c2c(=O)n1-c1ccccc1 [Compound 228]	0.1 to 1 µM

target: T3, PI3K δ (Homo sapiens, UniProt O00329); assay: PI3-Kinase Promega ADP-Glo Max assay; type: biochemical; conditions: 20 nM kinase, 3 mM ATP, 500 uM diC8-PtdInsP
T3 construct: purchased Millipore
T3 sequence (O00329 whole entry): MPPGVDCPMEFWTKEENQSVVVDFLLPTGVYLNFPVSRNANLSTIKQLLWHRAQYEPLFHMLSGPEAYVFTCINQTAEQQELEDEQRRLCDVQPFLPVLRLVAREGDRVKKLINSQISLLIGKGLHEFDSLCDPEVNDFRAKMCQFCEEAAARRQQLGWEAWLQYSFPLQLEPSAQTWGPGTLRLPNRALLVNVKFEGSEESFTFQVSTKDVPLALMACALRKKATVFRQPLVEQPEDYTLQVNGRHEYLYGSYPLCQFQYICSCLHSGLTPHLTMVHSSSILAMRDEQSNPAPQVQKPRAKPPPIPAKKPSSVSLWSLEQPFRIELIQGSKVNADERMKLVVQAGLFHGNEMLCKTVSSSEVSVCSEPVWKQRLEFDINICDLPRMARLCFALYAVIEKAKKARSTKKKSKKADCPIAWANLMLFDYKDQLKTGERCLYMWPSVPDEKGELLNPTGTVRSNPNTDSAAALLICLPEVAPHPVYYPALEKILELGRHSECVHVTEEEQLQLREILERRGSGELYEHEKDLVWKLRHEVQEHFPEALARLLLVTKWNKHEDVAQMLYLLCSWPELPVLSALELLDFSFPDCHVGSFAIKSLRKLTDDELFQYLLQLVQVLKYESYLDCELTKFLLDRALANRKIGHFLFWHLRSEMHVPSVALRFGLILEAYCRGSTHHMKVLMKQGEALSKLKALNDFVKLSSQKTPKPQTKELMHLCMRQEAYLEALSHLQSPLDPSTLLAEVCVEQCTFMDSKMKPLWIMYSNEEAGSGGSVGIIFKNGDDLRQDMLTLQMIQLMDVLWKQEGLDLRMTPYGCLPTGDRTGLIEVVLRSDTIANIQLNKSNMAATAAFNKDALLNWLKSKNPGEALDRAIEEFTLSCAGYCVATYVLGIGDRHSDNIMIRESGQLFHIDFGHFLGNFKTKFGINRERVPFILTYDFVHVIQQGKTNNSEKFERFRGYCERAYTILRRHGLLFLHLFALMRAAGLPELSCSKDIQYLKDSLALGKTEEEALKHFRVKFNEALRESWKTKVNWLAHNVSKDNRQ
T3 sequence (P27986 whole entry partner): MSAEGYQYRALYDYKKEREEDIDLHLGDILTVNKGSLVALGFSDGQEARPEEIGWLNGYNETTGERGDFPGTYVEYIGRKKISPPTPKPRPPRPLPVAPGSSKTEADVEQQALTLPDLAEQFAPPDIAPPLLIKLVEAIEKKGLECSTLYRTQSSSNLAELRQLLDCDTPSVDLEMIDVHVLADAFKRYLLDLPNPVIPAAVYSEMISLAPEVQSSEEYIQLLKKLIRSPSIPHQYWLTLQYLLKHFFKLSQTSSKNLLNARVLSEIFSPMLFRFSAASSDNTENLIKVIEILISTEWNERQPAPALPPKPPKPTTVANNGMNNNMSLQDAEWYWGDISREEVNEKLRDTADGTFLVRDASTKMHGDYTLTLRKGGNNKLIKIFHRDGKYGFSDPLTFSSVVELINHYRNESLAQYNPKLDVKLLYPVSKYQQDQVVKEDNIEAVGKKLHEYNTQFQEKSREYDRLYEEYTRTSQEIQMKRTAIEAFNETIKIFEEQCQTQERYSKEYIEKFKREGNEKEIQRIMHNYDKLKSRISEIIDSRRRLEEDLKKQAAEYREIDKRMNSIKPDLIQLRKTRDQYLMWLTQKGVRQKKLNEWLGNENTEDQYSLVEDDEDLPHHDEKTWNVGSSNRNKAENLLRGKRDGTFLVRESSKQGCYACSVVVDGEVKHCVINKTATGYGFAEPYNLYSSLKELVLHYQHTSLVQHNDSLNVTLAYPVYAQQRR
Summary of the method: (§1)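 Human class I PI3K (20 nM α or δ, 40 nM β) pre-incubated 15 min with compound in HEPES pH 7.4 buffer with MgCl2, then reacted 2 h at room temperature with 3 mM ATP and 500 uM diC8-PtdInsP. ADP measured by ADP-Glo Max luminescence; % inhibition fitted to 4-parameter logistic for IC50.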

IC50	SMILES
1 to 10 µM	CC(C)Oc1cc(-c2cccc3nc([C@H](C)NC(=O)c4c(N)nn5cccnc45)n(-c4ccccc4)c(=O)c23)ccn1 [Compound 145]
0.1 to 1 µM	C[C@H](NC(=O)c1c(N)nn2cccnc12)c1cc2cccc(-c3ccc(=O)n(C)c3)c2c(=O)n1-c1ccccc1 [Compound 121]

Continued, compound first:

SMILES	IC50
CNS(=O)(=O)c1cccc(-c2cnc(N)c(C(=O)N[C@@H](C)c3cc4cccc(Cl)c4c(=O)n3-c3ccccc3)n2)c1 [Compound 83]	1 to 10 µM
C[C@H](NC(=O)c1nccnc1N)c1cc2cccc(Cl)c2c(=O)n1-c1ccc(F)cc1 [Compound 19]	0.1 to 1 µM
COc1cc(-c2cccc3cc(C(C)NC(=O)c4c(N)nn5cccnc45)c(-c4ccccc4)nc23)ccn1 (stereo not drawn) [Compound 219]	> 10 µM
C[C@H](NC(=O)c1c(N)nn2cccnc12)c1c(Br)c2cccc(Cl)c2c(=O)n1-c1ccccc1 [Compound 254]	0.1 to 1 µM
CC(C)Oc1ccc(-c2cnc(N)c(C(=O)N[C@@H](C)c3cc4cccc(Cl)c4c(=O)n3-c3ccccc3)n2)cn1 [Compound 98]	1 to 10 µM
C[C@H](NC(=O)c1c(N)nn2cccnc12)c1cc2cccc(CO)c2c(=O)n1-c1ccccc1 [Compound 228]	1 to 10 µM

target: T4, PI3K α (Homo sapiens, UniProt P42336); assay: PI3-Kinase Promega ADP-Glo Max assay; type: biochemical; conditions: 20 nM kinase, 3 mM ATP, 500 uM diC8-PtdInsP
T4 construct: purchased Millipore
T4 sequence (P42336 whole entry): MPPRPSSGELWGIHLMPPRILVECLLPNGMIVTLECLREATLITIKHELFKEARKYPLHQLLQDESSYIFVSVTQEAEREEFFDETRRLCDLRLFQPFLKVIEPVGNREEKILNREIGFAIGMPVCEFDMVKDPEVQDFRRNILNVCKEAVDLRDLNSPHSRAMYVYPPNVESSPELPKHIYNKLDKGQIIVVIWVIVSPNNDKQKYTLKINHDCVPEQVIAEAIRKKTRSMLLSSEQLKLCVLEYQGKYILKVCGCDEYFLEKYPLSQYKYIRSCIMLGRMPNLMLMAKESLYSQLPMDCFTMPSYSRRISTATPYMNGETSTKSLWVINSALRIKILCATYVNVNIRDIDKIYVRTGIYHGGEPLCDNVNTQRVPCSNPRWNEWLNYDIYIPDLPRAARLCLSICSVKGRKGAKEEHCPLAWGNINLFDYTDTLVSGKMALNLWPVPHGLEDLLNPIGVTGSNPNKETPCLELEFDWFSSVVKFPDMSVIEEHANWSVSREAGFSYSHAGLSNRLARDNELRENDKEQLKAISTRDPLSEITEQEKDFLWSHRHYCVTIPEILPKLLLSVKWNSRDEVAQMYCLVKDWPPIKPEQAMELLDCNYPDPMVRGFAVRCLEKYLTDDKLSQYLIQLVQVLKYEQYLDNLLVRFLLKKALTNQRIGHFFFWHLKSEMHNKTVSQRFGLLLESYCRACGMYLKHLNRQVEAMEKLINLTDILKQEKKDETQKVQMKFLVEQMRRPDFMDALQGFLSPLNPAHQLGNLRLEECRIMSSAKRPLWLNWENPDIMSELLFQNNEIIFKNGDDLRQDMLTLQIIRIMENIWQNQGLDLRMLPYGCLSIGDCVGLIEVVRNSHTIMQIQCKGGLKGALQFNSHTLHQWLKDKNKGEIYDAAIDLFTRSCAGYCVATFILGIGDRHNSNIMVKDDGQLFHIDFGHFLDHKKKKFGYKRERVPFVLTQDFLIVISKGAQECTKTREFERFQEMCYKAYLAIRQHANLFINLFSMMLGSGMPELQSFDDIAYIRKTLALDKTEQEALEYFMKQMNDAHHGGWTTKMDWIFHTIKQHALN
T4 sequence (P27986 whole entry partner): as the sequence (P27986 whole entry partner) above
Summary of the method: as §1

IC50	SMILES
> 10 µM	CC(C)Oc1cc(-c2cccc3nc([C@H](C)NC(=O)c4c(N)nn5cccnc45)n(-c4ccccc4)c(=O)c23)ccn1 [Compound 145]
> 10 µM	C[C@H](NC(=O)c1c(N)nn2cccnc12)c1cc2cccc(-c3ccc(=O)n(C)c3)c2c(=O)n1-c1ccccc1 [Compound 121]

Second part, the compound before the results:

SMILES	IC50
CNS(=O)(=O)c1cccc(-c2cnc(N)c(C(=O)N[C@@H](C)c3cc4cccc(Cl)c4c(=O)n3-c3ccccc3)n2)c1 [Compound 83]	1 to 10 µM
C[C@H](NC(=O)c1nccnc1N)c1cc2cccc(Cl)c2c(=O)n1-c1ccc(F)cc1 [Compound 19]	> 10 µM
COc1cc(-c2cccc3cc(C(C)NC(=O)c4c(N)nn5cccnc45)c(-c4ccccc4)nc23)ccn1 (stereo not drawn) [Compound 219]	> 10 µM
C[C@H](NC(=O)c1c(N)nn2cccnc12)c1c(Br)c2cccc(Cl)c2c(=O)n1-c1ccccc1 [Compound 254]	1 to 10 µM
CC(C)Oc1ccc(-c2cnc(N)c(C(=O)N[C@@H](C)c3cc4cccc(Cl)c4c(=O)n3-c3ccccc3)n2)cn1 [Compound 98]	> 10 µM
C[C@H](NC(=O)c1c(N)nn2cccnc12)c1cc2cccc(CO)c2c(=O)n1-c1ccccc1 [Compound 228]	> 10 µM

target: T5, PI3K β (Homo sapiens, UniProt P42338); assay: PI3-Kinase Promega ADP-Glo Max assay; type: biochemical; conditions: 40 nM kinase, 3 mM ATP, 500 uM diC8-PtdInsP
T5 construct: purchased Millipore
Summary of the method: as §1

IC50	SMILES
1 to 10 µM	CC(C)Oc1cc(-c2cccc3nc([C@H](C)NC(=O)c4c(N)nn5cccnc45)n(-c4ccccc4)c(=O)c23)ccn1 [Compound 145]
> 10 µM	C[C@H](NC(=O)c1c(N)nn2cccnc12)c1cc2cccc(-c3ccc(=O)n(C)c3)c2c(=O)n1-c1ccccc1 [Compound 121]

More lines, now with the values behind:

SMILES	IC50
CNS(=O)(=O)c1cccc(-c2cnc(N)c(C(=O)N[C@@H](C)c3cc4cccc(Cl)c4c(=O)n3-c3ccccc3)n2)c1 [Compound 83]	0.1 to 1 µM
C[C@H](NC(=O)c1nccnc1N)c1cc2cccc(Cl)c2c(=O)n1-c1ccc(F)cc1 [Compound 19]	0.1 to 1 µM
COc1cc(-c2cccc3cc(C(C)NC(=O)c4c(N)nn5cccnc45)c(-c4ccccc4)nc23)ccn1 (stereo not drawn) [Compound 219]	> 10 µM
C[C@H](NC(=O)c1c(N)nn2cccnc12)c1c(Br)c2cccc(Cl)c2c(=O)n1-c1ccccc1 [Compound 254]	1 to 10 µM
CC(C)Oc1ccc(-c2cnc(N)c(C(=O)N[C@@H](C)c3cc4cccc(Cl)c4c(=O)n3-c3ccccc3)n2)cn1 [Compound 98]	> 10 µM
C[C@H](NC(=O)c1c(N)nn2cccnc12)c1cc2cccc(CO)c2c(=O)n1-c1ccccc1 [Compound 228]	1 to 10 µM

target: RAJI p110 δ (Homo sapiens, UniProt O00329); assay: RAJI p110 δ cellular assay (phospho-AKT); conditions: not given;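 note: potency based on lowered phosphorylated AKT in RAJI cells, as a readout of PI3K-δ dependent B-cell receptor signaling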
Sequence (O00329 whole entry): as the sequence (O00329 whole entry) above
Sequence (P27986 whole entry partner): as the sequence (P27986 whole entry partner) above

IC50	SMILES
< 0.1 µM	CC(C)Oc1cc(-c2cccc3nc([C@H](C)NC(=O)c4c(N)nn5cccnc45)n(-c4ccccc4)c(=O)c23)ccn1 [Compound 145]
< 0.1 µM	C[C@H](NC(=O)c1c(N)nn2cccnc12)c1cc2cccc(-c3ccc(=O)n(C)c3)c2c(=O)n1-c1ccccc1 [Compound 121]

The next lines start with the compound.

SMILES	IC50
CNS(=O)(=O)c1cccc(-c2cnc(N)c(C(=O)N[C@@H](C)c3cc4cccc(Cl)c4c(=O)n3-c3ccccc3)n2)c1 [Compound 83]	< 0.1 µM
C[C@H](NC(=O)c1nccnc1N)c1cc2cccc(Cl)c2c(=O)n1-c1ccc(F)cc1 [Compound 19]	< 0.1 µM
COc1cc(-c2cccc3cc(C(C)NC(=O)c4c(N)nn5cccnc45)c(-c4ccccc4)nc23)ccn1 (stereo not drawn) [Compound 219]	0.1 to 1 µM
C[C@H](NC(=O)c1c(N)nn2cccnc12)c1c(Br)c2cccc(Cl)c2c(=O)n1-c1ccccc1 [Compound 254]	< 0.1 µM
CC(C)Oc1ccc(-c2cnc(N)c(C(=O)N[C@@H](C)c3cc4cccc(Cl)c4c(=O)n3-c3ccccc3)n2)cn1 [Compound 98]	0.1 to 1 µM
C[C@H](NC(=O)c1c(N)nn2cccnc12)c1cc2cccc(CO)c2c(=O)n1-c1ccccc1 [Compound 228]	0.1 to 1 µM

— patent US8940742B2, “Heterocyclic compounds and uses thereof” (Infinity Pharmaceuticals, Inc., priority 2012, dated 2015)
